Target: T1, human vanilloid-1 (hVR1) (Homo sapiens, UniProt Q8NER1)
T1 construct: expressed in transfected cells; host or cells: HEK293 Tet-on (hVR1-HEK293), doxycycline-induced
Assay: Calcium influx of vanilloid receptor in hVR1-HEK293 cells (capsaicin-induced, Fluo-3/AM)
Assay type: cell-based
Settings: 1 μM capsaicin-induced intracellular calcium influx, read-out: Inhibitory Activity IC50
Description: Experiments for calcium influx were performed to measure the activity of the compounds as antagonists.
The cell strain hVR1-HEK293 is the human embryonic kidney (HEK) 293 Tet-on cell transfected with a human vanilloid-1 gene (pTRE2hyg-hVR1, 7.8 kb), which is capable of controlling the expression of VR1 according to the administration of deoxycycline, a tetracycline derivative analog. In a medium supplemented with deoxycycline two days before calcium influx experiments, the cell strain was cultured to induce the expression of VR1. After being grown to a confluency of about 80% in T75 flasks, hVR1-HEK293 was detached from the flask using trypsin. Cells harvested by centrifugation were suspended in a medium supplemented with 1 μg/mL of deoxycycline and diluted to a density of 2-4×10^5 cells/mL, after which a 100 μL aliquot of the cell suspension was added to each well of 96 well black plates. Before the measurement of calcium influx, the cells were incubated for two days at 37° C. in a 5% CO2 incubator.
For use in calcium influx experiments, each compound was dissolved in dimethyl sulfoxide (DMSO).
To measure an intracellular calcium influx, cells were incubated at 37° C. for 90 min in a medium containing the calcium indicator Fluo-3/AM so as to allow the fluorescent dye to penetrate into the cells. Then, the cells were washed three times with D-PBS (Dulbecco's phosphate buffered saline) containing 10 mM HEPES to remove the fluorescent dye which remained outside. 193 μL aliquot of D-PBS was added to each well, followed by the addition of various concentrations of compounds thereto. In order to measure the antagonistic activity of the compounds, calcium influx was induced by treatment with 1 μM capsaicin. The inhibitory effect of each compound on 1 μM capsaicin-induced intracellular calcium influx according to compound concentration was measured using a fluorescent analyzer and the data thus obtained were analyzed on the basis of the Hill's equation.

T1 sequence (Q8NER1 whole entry): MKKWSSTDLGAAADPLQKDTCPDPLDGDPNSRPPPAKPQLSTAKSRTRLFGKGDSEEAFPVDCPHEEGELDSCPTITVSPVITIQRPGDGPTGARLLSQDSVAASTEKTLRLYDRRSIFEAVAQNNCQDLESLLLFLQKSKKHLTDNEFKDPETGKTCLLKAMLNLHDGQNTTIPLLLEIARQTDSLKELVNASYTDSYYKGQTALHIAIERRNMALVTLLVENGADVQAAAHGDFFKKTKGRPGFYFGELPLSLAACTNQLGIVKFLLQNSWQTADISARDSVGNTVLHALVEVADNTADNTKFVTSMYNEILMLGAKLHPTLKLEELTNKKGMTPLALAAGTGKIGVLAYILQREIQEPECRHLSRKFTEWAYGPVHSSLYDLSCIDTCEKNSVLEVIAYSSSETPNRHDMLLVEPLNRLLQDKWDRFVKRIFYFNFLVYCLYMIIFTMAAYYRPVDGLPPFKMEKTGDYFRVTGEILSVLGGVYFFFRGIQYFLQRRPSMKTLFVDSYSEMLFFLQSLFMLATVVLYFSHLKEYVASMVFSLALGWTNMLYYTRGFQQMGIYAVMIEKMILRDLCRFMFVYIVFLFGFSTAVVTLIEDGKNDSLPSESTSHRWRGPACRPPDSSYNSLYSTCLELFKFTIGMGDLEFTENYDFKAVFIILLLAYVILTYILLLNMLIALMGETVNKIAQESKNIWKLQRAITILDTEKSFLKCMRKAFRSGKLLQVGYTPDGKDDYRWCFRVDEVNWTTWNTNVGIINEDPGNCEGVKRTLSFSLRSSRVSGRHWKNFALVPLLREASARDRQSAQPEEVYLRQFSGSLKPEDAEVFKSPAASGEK

Compound	IC50 [nM]
Clc1cccnc1-c1ccc(-c2nc3ccc(Br)cc3[nH]2)cc1 [Compound 13, 6-bromo-2-(4-(3-chloropyridin-2-yl)phenyl)-1H-benzoimidazole]	289
FC(F)(F)c1cc(Br)c2nc(-c3ccc(-c4ncccc4Cl)cc3)[nH]c2c1 [Compound 14, 4-bromo-2-(4-(3-chloropyridin-2-yl)phenyl)-6-(trifluoromethyl)-1H-benzoimidazole]	168
FC(F)(F)c1cccnc1-c1ccc(-c2nc3cc(Cl)c(Cl)cc3[nH]2)cc1 [Compound 35, 5,6-dichloro-2-[4-(3-trifluoromethylpyridin-2-yl)phenyl]-1H-benzoimidazole]	39
Fc1ccc2nc(-c3ccc(-c4ncccc4C(F)(F)F)cc3)[nH]c2c1 [Compound 38, 6-fluoro-2-(4-(3-(trifluoromethyl)pyridin-2-yl)phenyl)-1H-benzoimidazole]	454
FC(F)(F)c1cccnc1-c1ccc(-c2nc3ncc(Br)cc3[nH]2)cc1 [Compound 39]	19
CC(C)(C)c1ccc2nc(-c3ccc(-c4ccccn4)cc3)[nH]c2c1 [Compound 47, 6-tert-butyl-2-(4-pyridin-2-ylphenyl)-1H-benzoimidazole]	82
FC(F)(F)c1ccc2nc(-c3ccc(-c4ccccn4)cc3)[nH]c2c1 [Compound 48, 6-(trifluoromethyl)-2-(4-(pyridin-2-yl)phenyl)-1H-benzoimidazole]	160
FC(F)(F)c1cc(Cl)c2nc(-c3ccc(-c4ccccn4)cc3)[nH]c2c1 [Compound 49, 4-chloro-6-(trifluoromethyl)-2-(4-(pyridin-2-yl)phenyl)-1H-benzoimidazole]	284
Clc1cc2nc(-c3ccc(-c4ccccn4)cc3)[nH]c2cc1Cl [Compound 50, 5,6-dichloro-2-(4-(pyridin-2-yl)phenyl)-1H-benzoimidazole]	292
FC(F)(F)c1cc(C(F)(F)F)c2nc(-c3ccc(-c4ccccn4)cc3)[nH]c2c1 [Compound 51, 4,6-bis(trifluoromethyl)-2-(4-(pyridin-2-yl)phenyl)-1H-benzoimidazole]	246
Fc1ccc2nc(-c3ccc(-c4ccccn4)cc3)[nH]c2c1 [Compound 52, 6-fluoro-2-(4-(pyridin-2-yl)phenyl)-1H-benzoimidazole]	1400
Brc1cnc2nc(-c3ccc(-c4ccccn4)cc3)[nH]c2c1 [Compound 53, 6-bromo-2-(4-(pyridin-2-yl)phenyl)-1H-imidazo[4,5-b]pyridine]	145

Results, then the compound that gave them:

IC50 [nM]	Compound
22	FC(F)(F)c1cc(Br)c2nc(-c3ccc(-c4nccc(C(F)(F)F)n4)cc3)[nH]c2c1 [Compound 56, 4-bromo-6-(trifluoromethyl)-2-(4-(4-(trifluoromethyl)pyrimidin-2-yl)phenyl)-1H-benzoimidazole]
145	CC(C)(C)c1ccc2nc(-c3ccc(-c4ncccn4)cc3)[nH]c2c1 [Compound 58, 6-tert-butyl-2-(4-(pyrimidin-2-yl)phenyl)-1H-benzoimidazole]
296	N#Cc1cccnc1-c1ccc(-c2nc3ccc(C(F)(F)F)cc3[nH]2)cc1 [Compound 59, 2-(4-(6-(trifluoromethyl)-1H-benzoimidazole-2-yl)phenyl)pyridin-3-carbonitrile]
150	CC(C)(C)c1ccc2nc(-c3ccc(-c4ncccc4C#N)cc3)[nH]c2c1 [Compound 60]
263	CC(C)(C)c1ccc2nc(-c3ccc(-c4ccccn4)cc3F)[nH]c2c1 [Compound 82, 6-tert-butyl-2-(2-fluoro-4-pyridin-2-yl)phenyl-1H-benzoimidazole]
644	FC(F)(F)c1ccc2nc(-c3ccc(-c4ncccc4C(F)(F)F)cc3Cl)[nH]c2c1 [Compound 97, 2-[2-chloro-4-(3-trifluoromethylpyridin-2-yl)phenyl]-6-trifluoromethyl-1H-benzoimidazole]
275	FC(F)(F)c1cc(C(F)(F)F)c2nc(-c3ccc(-c4ncccc4Cl)c4ccccc34)[nH]c2c1 [Compound 106, 2-[4-(3-chloropyridin-2-yl)naphthalen-1-yl]-4,6-bistrifluoromethyl-1H-benzoimidazole]
